The record followed here is PMC8991199, “Promiscuity mapping of the S100 protein family using a high-throughput holdup assay” (Scientific Reports, 2022).

A value given as a limit tells only on which side of the number the result lay.

For orientation: Kd means the equilibrium constant for the complex coming apart.

Common to all, as to assay type: binding
One assay deals with T1, S100A15 (Homo sapiens, UniProt Q86SG5).
T1 sequence (Q86SG5 1-101): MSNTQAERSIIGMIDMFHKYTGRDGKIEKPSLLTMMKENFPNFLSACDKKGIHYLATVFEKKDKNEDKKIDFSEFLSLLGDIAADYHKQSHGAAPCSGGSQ
The assay is described as follows: direct fluorescence polarization (FP), S100A15. The note with it: S100A15, 50 nM labeled foldamer, 20 mM HEPES pH 7.5, 150 mM NaCl, 1 mM CaCl2, 0.5 mM TCEP, 0.01% Tween20, quadratic fit, mean ± SEM, three technical repeats, threshold 1 mM. The procedure:
(§1) HTP (and also low-throughput) measurements generally need to be validated by an orthogonal approach to eliminate experimental artifacts. […] This way, we chose WL, IF, WW, YF, IL, VL, TW, RF, RR, TI, TM, and after resynthesizing with a fluorescent label at the C-terminus (Figs. S15–S26, Table S1), the S100ome was tested against the labeled foldamers by direct fluorescence polarization (FP) (Fig. 3A). In this assay, the association of the fluorescently labeled foldamer and the S100 protein of interest is monitored, through the change in polarization of the emitted light by the fluorophore upon the binding event. In direct FP, the presence of the fluorophore might change the binding affinity of some foldamers. […] Nevertheless, we assumed that the fluorophore would affect all foldamers that target the same binding site to the same degree, because the foldamer scaffold is rigid. Defining the threshold of detection at the dissociation constant of 1 mM, we identified 87 interactions between the selected foldamer fragments and the S100ome out of 220 possible interactions (Table 1, Fig. S4-14).
(§2) Briefly, S100 proteins were cloned into a modified pET15b vector with a TEV protease cleavable N-terminal His6-tag and expressed in Escherichia coli BL21 (DE3) cells, followed by Ni^2+-affinity chromatography. For HU assay, S100 proteins were further purified by either hydrophobic interaction chromatography or ion exchange chromatography without the cleavage of the N-terminal His6-tag applying standard conditions. For direct FP measurements, the N-terminal His6-tag was cleaved, and the S100 proteins were purified by hydrophobic interaction chromatography, ion exchange chromatography or size exclusion chromatography. The quality of the recombinant proteins was checked by SDS-PAGE analysis in all cases. The concentration of the recombinant S100 proteins was determined by UV spectrophotometry using the absorbance of Tyr and Trp residues.
(§3) In direct fluorescence polarization assays, S100 proteins were diluted in a buffer containing 50 nM labeled foldamer, 20 mM HEPES pH 7.5, 150 mM NaCl, 1 mM CaCl2, 0.5 mM TCEP and 0.01% Tween20. The dilution series (50 µl) were divided into three technical repeats and transferred (15 µl) to a 384-well microplate. In competitive fluorescence polarization assays, the buffer applied in direct measurements was supplemented with the S100 protein of interest to reach a saturation of 60–80%. This mixture was titrated with the competitor (i.e. the unlabeled peptide). Fluorescence polarization was measured in 8 different S100 concentrations (one of which contained no S100 protein) on a Synergy H4 plate reader using 485 ± 20 nm and 528 ± 20 nm band-pass filters for excitation and emission, respectively. The Kd values were obtained by fitting the data from the FP measurements with the python-based ProFit software using quadratic and competitive binding equation for direct and competitive FP, respectively. The detection threshold was based on two parameters. First, we rejected all fitted dissociation constants above 1 mM.
Background: In fluorescence polarisation assays a small probe gives low polarisation when free and higher when bound to something large.

The target of a further assay is T2, S100A12 (Homo sapiens, UniProt P80511).
T2 sequence (P80511 1-92): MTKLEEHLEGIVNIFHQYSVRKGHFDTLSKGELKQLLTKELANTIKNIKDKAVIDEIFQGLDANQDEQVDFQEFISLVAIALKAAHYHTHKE
Nature of the assay: direct fluorescence polarization (FP), S100A12. The note with it: S100A12, 50 nM labeled foldamer, 20 mM HEPES pH 7.5, 150 mM NaCl, 1 mM CaCl2, 0.5 mM TCEP, 0.01% Tween20, quadratic fit, mean ± SEM, three technical repeats, threshold 1 mM. Here is the method:
as §1, §2, §3

In another assay the target is T3, S100A14 (Homo sapiens, UniProt Q9HCY8).
T3 sequence (Q9HCY8 1-104): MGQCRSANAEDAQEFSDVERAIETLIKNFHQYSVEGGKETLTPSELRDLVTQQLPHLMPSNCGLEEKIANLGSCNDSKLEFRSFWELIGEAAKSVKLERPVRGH
The assay is described as follows: direct fluorescence polarization (FP), S100A14. To be noted: S100A14, 50 nM labeled foldamer, 20 mM HEPES pH 7.5, 150 mM NaCl, 1 mM CaCl2, 0.5 mM TCEP, 0.01% Tween20, quadratic fit, mean ± SEM, three technical repeats, threshold 1 mM. The procedure: as §1, §2, §3

Another assay concerns the target T4, S100A9 (Homo sapiens, UniProt P06702).
T4 sequence (P06702 1-114): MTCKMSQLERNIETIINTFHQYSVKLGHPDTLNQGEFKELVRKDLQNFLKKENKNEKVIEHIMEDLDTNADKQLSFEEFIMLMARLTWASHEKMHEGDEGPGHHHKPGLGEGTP
The assay is described as follows: direct fluorescence polarization (FP), S100A9. The note with it: S100A9, 50 nM labeled foldamer, 20 mM HEPES pH 7.5, 150 mM NaCl, 1 mM CaCl2, 0.5 mM TCEP, 0.01% Tween20, quadratic fit, mean ± SEM, three technical repeats, threshold 1 mM. The procedure: as §1, §2, §3

The target of another assay is T5, S100A1 (Homo sapiens, UniProt P23297).
T5 sequence (P23297 1-94): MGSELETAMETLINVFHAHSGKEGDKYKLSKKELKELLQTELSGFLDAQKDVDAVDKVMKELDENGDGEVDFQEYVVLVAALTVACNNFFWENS
Nature of the assay: direct fluorescence polarization (FP), S100A1. The note with it: S100A1, 50 nM labeled foldamer, 20 mM HEPES pH 7.5, 150 mM NaCl, 1 mM CaCl2, 0.5 mM TCEP, 0.01% Tween20, quadratic fit, mean ± SEM, three technical repeats, threshold 1 mM.
Excerpt: HTP (and also low-throughput) measurements generally need to be validated by an orthogonal approach to eliminate experimental artifacts. […] In this assay, the association of the fluorescently labeled foldamer and the S100 protein of interest is monitored, through the change in polarization of the emitted light by the fluorophore upon the binding event. In direct FP, the presence of the fluorophore might change the binding affinity of some foldamers. […] Nevertheless, we assumed that the fluorophore would affect all foldamers that target the same binding site to the same degree, because the foldamer scaffold is rigid.
as §2, §3

In a further assay the target is T6, S100A8 (Homo sapiens, UniProt P05109).
T6 sequence (P05109 1-93): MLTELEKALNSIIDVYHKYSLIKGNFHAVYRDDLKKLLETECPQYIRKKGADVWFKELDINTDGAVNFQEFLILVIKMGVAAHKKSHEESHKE
The assay is described as follows: direct fluorescence polarization (FP), S100A8. The note with it: S100A8, 50 nM labeled foldamer, 20 mM HEPES pH 7.5, 150 mM NaCl, 1 mM CaCl2, 0.5 mM TCEP, 0.01% Tween20, quadratic fit, mean ± SEM, three technical repeats, threshold 1 mM. The procedure: as §1, §2, §3

In the case of `NC(=O)[C@H](CCCCNC(=O)c1ccc2c(c1)C1(OC2=O)c2ccc(O)cc2Oc2cc(O)ccc21)NC(=O)CNC(=O)[C@H]1CCCC[C@@H]1NC(=O)C[C@H](Cc1ccccc1)NC(=O)[C@H]1CCCC[C@@H]1NC(=O)[C@H]1CCCC[C@@H]1NC(=O)C[C@H](Cc1ccc(O)cc1)NC(=O)[C@H]1CCCC[C@@H]1N` [fYF], the Kd on S100A15 was over 1000 µM; on S100A12, over 1000 µM; on S100A14 it was over 1000 µM; at S100A9, over 1000 µM; at S100A1, 110 ± 9.8 µM; on S100A8, 180 ± 42 µM.

For `CC[C@H](C)[C@@H](CC(=O)N[C@H]1CCCC[C@@H]1C(=O)NCC(=O)N[C@@H](CCCCNC(=O)c1ccc2c(c1)C1(OC2=O)c2ccc(O)cc2Oc2cc(O)ccc21)C(N)=O)NC(=O)[C@H]1CCCC[C@@H]1NC(=O)[C@H]1CCCC[C@@H]1NC(=O)C[C@@H](NC(=O)[C@H]1CCCC[C@@H]1N)[C@@H](C)O` [fTI], the Kd on S100A15, at S100A12, at S100A14, on S100A9, on S100A1 and at S100A8 was over 1000 µM each time.

On to `C[C@@H](O)[C@@H](CC(=O)N[C@H]1CCCC[C@@H]1C(=O)N[C@H]1CCCC[C@@H]1C(=O)N[C@H](CC(=O)N[C@H]1CCCC[C@@H]1C(=O)NCC(=O)N[C@@H](CCCCNC(=O)c1ccc2c(c1)C1(OC2=O)c2ccc(O)cc2Oc2cc(O)ccc21)C(N)=O)Cc1c[nH]c2ccccc12)NC(=O)[C@H]1CCCC[C@@H]1N` [fTW], for which the Kd is over 1000 µM at S100A15; over 1000 µM on S100A12; over 1000 µM at S100A14; over 1000 µM at S100A9; 330 ± 20 µM on S100A1; 770 ± 180 µM on S100A8.

On to `CC(C)C[C@@H](CC(=O)N[C@H]1CCCC[C@@H]1C(=O)NCC(=O)N[C@@H](CCCCNC(=O)c1ccc2c(c1)C1(OC2=O)c2ccc(O)cc2Oc2cc(O)ccc21)C(N)=O)NC(=O)[C@H]1CCCC[C@@H]1NC(=O)[C@H]1CCCC[C@@H]1NC(=O)C[C@@H](NC(=O)[C@H]1CCCC[C@@H]1N)C(C)C` [fVL], for which the Kd is over 1000 µM at S100A15; over 1000 µM at S100A12; over 1000 µM on S100A14; over 1000 µM on S100A9; 97 ± 12 µM on S100A1; over 1000 µM on S100A8.
